Type in all cases: in vivo, human
Assay [1] relates to geographic atrophy (GA) secondary to age-related macular degeneration (AMD). Put plainly: Post hoc microperimetry perilesional analysis, OAKS study. The conditions noted are these: 24 months. The method, then:
LS means estimated from MMRM analysis. […] Perilesional area defined as −250 μm inside baseline atrophy border to +250 μm outside atrophy border. dB=decibel; LS=least square; M=month; mITT=modified intent-to-treat; MMRM=mixed-effects model for repeated measures; PEOM=pegcetacoplan every other month; PM=pegcetacoplan monthly; SE=standard error.
A post hoc microperimetry perilesional analysis was performed on patients in the OAKS study to assess whether pegcetacoplan preservation of retinal tissue was reflected in preserved photoreceptor function in retina near GA lesion borders at baseline. Geographic atrophy lesion borders grow at approximately 100-150 microns per year. An assessment was performed of visual function of cells within 250 microns on either side of the lesion border, which are at the highest risk of permanently losing visual function as lesions expand. Reduction of retinal sensitivity as measured by microperimetry reflects loss of function.
Perilesional area (area within 250 microns of each side of GA lesion border) was created on fundus autofluorescence for each patient, and microperimetry endpoints were assessed within this region (68 spots on grid). In this analysis, approximately 21-22 points (out of 68 total—about one-third) qualified as “peri-lesional” using the 500 micron zone definition (250 inside and 250 outside of GA lesion border). A representative image is depicted as FIG. 5. […] Patients in both monthly (0.564 dB; p=0.0650) and every-other-month (EOM) (0.707 dB; p=0.0202) pegcetacoplan treatment groups lost less retinal sensitivity compared to the sham group over 24 months with increasing effects over time. Scotomatous points measure areas of the retina that have lost all light sensitivity and therefore are no longer functioning. Patients in both monthly (−0.680 points; p=0.1444) and EOM (−1.138 points; p=0.0140) pegcetacoplan treatment groups had fewer new scotomatous points compared to sham over 24 months with increasing effects over time.

The test system is the same in assay [2]. Put plainly: Post-hoc SD-OCT analysis of PR and RPE loss, OAKS and DERBY studies. The conditions noted are these: 12 months; for RPE loss, difference EM vs EOM / PR loss, difference EM vs EOM: monthly vs every other month; for PR loss, difference EM vs. Sham Pooled / RPE loss, difference EM vs. Sham Pooled: monthly. From the text: LS means estimated from MMRM analysis. The mITT population was used for the analysis, defined as all randomized patients who received at least 1 injection of pegcetacoplan or sham and had baseline and at least one post-baseline value of GA lesion area in the study eye. FOV=field of view; LS=least square; M=month; mITT=modified intent-to-treat; MMRM=mixed-effects model for repeated measures; PEOM=pegcetacoplan every other month; PM=pegcetacoplan monthly; PR=photoreceptor; RPE=retinal pigment epithelium; SE=standard error.
LS means estimated from MMRM analysis. The mITT population was used for the analysis, defined as all randomized patients who received at least 1 injection of pegcetacoplan or sham and had baseline and at least one post-baseline value of GA lesion area in the study eye. FOV-field of view; LS=least square; M=month; mITT=modified intent-to-treat; MMRM=mixed-effects model for repeated measures; PEOM=pegcetacoplan every other month; PM=pegcetacoplan monthly; PR=photoreceptor; RPE=retinal pigment epithelium; SE=standard error.
Spectral-domain optical coherence tomography (OCT) allows for cross sectional visualization of the neurosensory retina, including the photoreceptor (PR) layer, as well as the retinal pigment epithelium (RPE) and other retinal structures. […] A post-hoc analysis that assessed the ability of pegcetacoplan treatment to reduce PR and RPE loss in patients with GA was performed using SD-OCT images acquired from a subgroup of patients in the OAKS and DERBY studies, namely those for whom Spectralis SD-OCT images were available. Automated, deep learning based segmentation of RPE loss and PR thickness on SD-OCT volumes acquired at baseline and months 2, 4, 6, 8, 10, and 12 was performed according to previously published methods. The difference in the change from baseline of RPE loss area and of PR loss area (determined based on PR thickness measurements) was compared among the monthly, every other month, and pooled sham treatment arms using LS Mean MMRM modeling. […] The magnitude of the treatment effects at 12 months, as determined using LS mean MMRM modeling, are summarized below.

Assay [3] has the same test system. Put plainly: Post-hoc analysis of BCVA and VFQ-25 by lesion distance from foveal center, OAKS and DERBY. The conditions noted are these: lesions ≥250 μm from foveal center, 24 months. The method, then:
This Example describes a post-hoc analysis of results from the OAKS and DERBY studies described in Example 1. Functional data by lesion distance from foveal center were assessed over 24 months.
In the patient subgroup having lesions ≥250 μm away from the foveal center, pegcetacoplan slowed vision loss and improved quality of life in patients. […] This subgroup included patients in the mITT sample with non-missing baseline measurements of RPE central 3 mm occupancy (C30) in regions 1-5 and lesion distance from fovea center. Mean changes were calculated among patients with BCVA measurements at each timepoint and thus samples varied across outcomes shown with no imputation for missing data. Adjusted differences from bootstrapped inverse probability weighted regressions controlling for baseline C30 in regions 1-5, study and fellow eye GA characteristics, study eye visual acuity, and patient characteristics.
This subgroup included patients in the mITT sample with non-missing baseline measurements of RPE central 3 mm occupancy (C3O) in regions 1-5 and lesion distance from fovea center. Mean changes were calculated among patients with BCVA measurements at each timepoint and thus samples varied across outcomes shown with no imputation for missing data. […]

The record followed here is patent US20260335397A1, “TREATMENT OF GEOGRAPHIC ATROPHY” (Apellis Pharmaceuticals, Inc., priority 2022, published 2026).

On to “Poly(oxy-1,2-ethanediyl), α-hydro-ω-hydroxy-, 15,15′-diester with N-acetyl-L-isoleucyl-L-cysteinyl-L-valyl-1-methyl-L-tryptophyl-L-glutaminyl-L-α-aspartyl-L-tryptophylglycyl-L-alanyl-L-histidyl-L-arginyl-L-cysteinyl-L-threonyl-2-[2-(2-aminoethoxy)ethoxy]acetyl-N^6-carboxy-L-lysinamide cyclic (2->12)-(disulfide) [pegcetacoplan]”, for which the “microperimetry measures, perilesional” value in assay [1] (all p-values nominal) is “positive trends in microperimetry measures”. Also, the “new scotomatous points (perilesional) compared to sham” value was −1.138 points in assay [1] (EOM, p=0.0140 (nominal)) and −0.680 points in assay [1] (monthly, p=0.1444 (nominal)). Also, the “less loss of retinal sensitivity (perilesional mean threshold sensitivity) compared to sham” value in assay [1] (every-other-month (EOM), p=0.0202 (nominal)) is on record as 0.707 dB; in assay [1] (monthly, p=0.0650 (nominal)), 0.564 dB. For the same substance, in assay [2] (DERBY and OAKS, monthly and every other month), the “PR loss and RPE loss compared with sham” value is “statistically significant reduction in PR loss and RPE loss at 12 months”. The “PR loss, difference every other month vs. Sham pooled” value in assay [2] (DERBY, every other month, p<0.0001) is recorded as −61.0%. The “RPE loss, difference every other month vs. Sham pooled” value is listed as −20.4% in assay [2] (DERBY, every other month, p<0.0065) and −14.8% in assay [2] (OAKS, every other month, p=0.0342). For the same substance, the “RPE loss, difference EM vs EOM” value is recorded as −19.6% in assay [2] (DERBY, p=0.0103) and −5.7% in assay [2] (OAKS, p=0.5282). For the same substance, the “PR loss, difference EM vs EOM” value in assay [2] (DERBY, p=0.0785) is −42%; in assay [2] (OAKS, p=0.0049), −51.3%. Besides, the “PR loss, difference EM vs. Sham Pooled” value in assay [2] (DERBY, p<0.0001) is −77.4%; in assay [2] (OAKS, p<0.0001) it was −74.5%. Further, the “RPE loss, difference EM vs. Sham Pooled” value in assay [2] (DERBY, p<0.0001) is given as −36.0%; in assay [2] (OAKS, p=0.0070) it was −19.7%. For the same substance, the “PR Loss, difference EOM vs. Sham pooled” value in assay [2] (OAKS, every other month, p<0.0001) was −47.7%. Besides, the “quality of life assessed by VFQ-25, better relative to sham” value in assay [3] is on record as “over 4 points”. Moreover, in assay [3] (monthly and every other month combined, baseline BCVA 73 (sham 75)), the “BCVA change from baseline, relative to sham” value is given as “less of a BCVA change from baseline at 24 months”.
